Measurements from PMC5860131, “Identification of natural products as novel ligands for the human 5-HT2C receptor” (Biophysics Reports, 2018).

Experiments:
Type in all cases: binding
[1] = target: T1, 5-HT2C receptor L209^ECL2F (Homo sapiens, UniProt P28335, DEL255-298/G251D/H250E/H252N/INS299[…]/L209F/L248D/M247A/M300L/T253W); assay: Affinity MS assay, 5-HT2C mutant L209F; details: n = 2
T1 construct: the N- and C-terminals were truncated by 39 and 65 residues, respectively; PreScission protease site + 10× His (C); made in house
T1 sequence (P28335 with tags, fused parts or gaps with the stated changes): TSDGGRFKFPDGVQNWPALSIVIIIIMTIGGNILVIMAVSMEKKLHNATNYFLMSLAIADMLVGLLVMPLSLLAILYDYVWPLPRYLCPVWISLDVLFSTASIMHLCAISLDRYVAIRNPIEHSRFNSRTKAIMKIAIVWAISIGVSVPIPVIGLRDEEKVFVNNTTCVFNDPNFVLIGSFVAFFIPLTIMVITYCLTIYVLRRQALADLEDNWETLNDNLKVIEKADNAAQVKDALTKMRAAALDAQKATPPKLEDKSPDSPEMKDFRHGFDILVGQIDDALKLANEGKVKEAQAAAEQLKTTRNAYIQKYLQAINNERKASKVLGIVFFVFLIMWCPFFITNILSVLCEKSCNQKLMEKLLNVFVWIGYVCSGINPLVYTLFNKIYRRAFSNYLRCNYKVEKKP
Excerpt: (§1) Based on the binding poses predicted by molecular docking, single-point mutations were designed to test their impact on ligand binding. Mutations of several residues include the highly conserved Asp134^3.32, which is known to cause 5-HT1B or 5-HT2B receptors to abolish the monoamine ligand binding as reported in the literature (Wang et al. [2013]). In this study, residues forming hydrophobic interactions with the substitution groups on the aporphine scaffold of (–)-crebanine (1) were selected for mutation as well and they are Thr139^3.37, Gly218^5.42, Ala222^5.46, and Leu209^ECL2. Effects of those mutations were tested with the CPM assay and the affinity MS assay (Table 2). In the affinity MS experiment, relative ligand-binding capacity (represented by binding %) to different mutants and the wild-type receptor was compared. Among the six mutations tested, five of them reduced the binding of (–)-crebanine (1) by more than 40% relative to binding to the wild-type receptor, displaying the importance of hydrophobic interactions. […]
(§2) Four experimental replicates were prepared for each pair of the test ligand and the negative control. […] S/C ratios refer to the ratio of MS response of a specific ligand detected in the 5-HT2C incubation sample versus the control. […]

[2] = target: T2, 5-HT2C receptor T139^3.37A (Homo sapiens, UniProt P28335, DEL255-298/G251D/H250E/H252N/INS299[…]/L248D/M247A/M300L/T139A/T253W); assay: CPM thermal stability assay, 5-HT2C mutant T139A; details: mutant T139^3.37A, n = 2
T2 construct: the N- and C-terminals were truncated by 39 and 65 residues, respectively; PreScission protease site + 10× His (C); made in house
T2 sequence (P28335 with tags, fused parts or gaps with the stated changes): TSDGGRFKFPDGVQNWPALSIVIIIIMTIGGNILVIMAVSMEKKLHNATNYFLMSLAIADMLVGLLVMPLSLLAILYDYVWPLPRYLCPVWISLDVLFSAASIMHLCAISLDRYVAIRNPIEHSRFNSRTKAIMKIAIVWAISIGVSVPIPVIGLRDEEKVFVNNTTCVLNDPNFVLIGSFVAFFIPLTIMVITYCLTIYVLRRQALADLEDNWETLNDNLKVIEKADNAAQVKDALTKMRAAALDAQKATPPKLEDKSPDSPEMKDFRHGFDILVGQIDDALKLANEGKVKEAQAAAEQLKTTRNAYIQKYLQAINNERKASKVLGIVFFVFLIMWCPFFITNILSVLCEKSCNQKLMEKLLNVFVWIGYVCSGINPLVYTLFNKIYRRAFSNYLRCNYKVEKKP
Excerpt: as §1, with “compared.” for “compared. Among the six mutations tested, five of them reduced the binding of (–)-crebanine (1) by more than 40% relative to binding to the wild-type receptor, displaying the importance of hydrophobic interactions.”
(§3) Purified 5-HT2C receptor protein was thoroughly mixed with CPM fluorescent dyes. […] Fluorescence signals, wavelength 387 nm (excitation) and 463 nm (emission), were monitored (Alexandrov et al. [2008]). […] The thermal denaturation of the samples was evaluated using the scatter plot curve, where the horizontal coordinates represented temperature and the vertical coordinates indicated normalized fluorescence intensity recorded for a particular temperature. […]

[3] = target: T3, 5-HT2C receptor (Homo sapiens, UniProt P28335, DEL255-298/G251D/H250E/H252N/INS299[…]/L248D/M247A/M300L/T253W)
T3 construct: the N- and C-terminals were truncated by 39 and 65 residues, respectively; FLAG (N); PreScission protease site + 10× His (C); made in house; host or cells: Spodoptera frugiperda (Sf9), baculovirus
T3 sequence (P28335 with tags, fused parts or gaps with the stated changes limits assumed): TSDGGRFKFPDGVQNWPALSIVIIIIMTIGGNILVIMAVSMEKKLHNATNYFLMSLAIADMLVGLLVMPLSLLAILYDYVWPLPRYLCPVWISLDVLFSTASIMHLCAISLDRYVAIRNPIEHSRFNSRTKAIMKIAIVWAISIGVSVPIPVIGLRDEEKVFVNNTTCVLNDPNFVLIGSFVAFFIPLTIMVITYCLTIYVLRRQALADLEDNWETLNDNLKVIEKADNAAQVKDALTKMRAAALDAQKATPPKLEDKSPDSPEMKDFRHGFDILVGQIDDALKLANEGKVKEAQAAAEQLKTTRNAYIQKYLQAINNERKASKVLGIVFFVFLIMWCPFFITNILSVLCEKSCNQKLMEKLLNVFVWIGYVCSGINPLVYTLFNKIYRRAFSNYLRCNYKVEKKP

[4] = target: T4, 5-HT2C receptor G218^5.42S (Homo sapiens, UniProt P28335, DEL255-298/G218S/G251D/H250E/H252N/INS299[…]/L248D/M247A/M300L/T253W); assay: Affinity MS assay, 5-HT2C mutant G218S
T4 construct: the N- and C-terminals were truncated by 39 and 65 residues, respectively; PreScission protease site + 10× His (C); made in house
T4 sequence (P28335 with tags, fused parts or gaps with the stated changes): as the sequence (P28335 with tags, fused parts or gaps with the stated changes limits assumed) above, with G179S counted along it
Excerpt: as §1, §2

[5] = target: T5, 5-HT2C receptor G218^5.42A (Homo sapiens, UniProt P28335, DEL255-298/G218A/G251D/H250E/H252N/INS299[…]/L248D/M247A/M300L/T253W); assay: CPM thermal stability assay, 5-HT2C mutant G218A
T5 construct: the N- and C-terminals were truncated by 39 and 65 residues, respectively; PreScission protease site + 10× His (C); made in house
T5 sequence (P28335 with tags, fused parts or gaps with the stated changes): as the sequence (P28335 with tags, fused parts or gaps with the stated changes limits assumed) above, with G179A counted along it
Excerpt: as §1, with “compared.” for “compared. Among the six mutations tested, five of them reduced the binding of (–)-crebanine (1) by more than 40% relative to binding to the wild-type receptor, displaying the importance of hydrophobic interactions.”
as §3

[6] = target: T2, 5-HT2C receptor T139^3.37A; assay: Affinity MS assay, 5-HT2C mutant T139A; details: mutant T139^3.37A, n = 2
Excerpt: as §1, §2

[7] = target: T3, 5-HT2C receptor; remark: listed apart in the source

For `COc1ccc2c(c1OC)C[C@@H]1c3c(cc4c(c3-2)OCO4)CCN1C` [Compound 1, (–)-crebanine], which “(–)-Crebanine/MS relative ligand binding” value [1] is on record?
The value was 13.22%.

And the “(–)-Crebanine/CPM (Tm)” value [2]?
Its value is 54.63 °C.

And the “(–)-Crebanine/MS relative ligand binding” value ([3]; WT receptor, n = 2, MS response of released ligand divided by total ligand in incubation sample)?
Its value is 27.57%.

And the S/C ([3]; ratio of MS response in 5-HT2C incubation sample versus control (hydroxycarboxylic acid receptor 2), 500 nmol/L protein, 250 nmol/L ligand, n = 4)?
Its S/C is 9.15 ± 1.43.

And the “(–)-Crebanine/MS relative ligand binding” value ([4]; mutant G218^5.42S, n = 2)?
Its value is 6.04%.

And the “ligand-binding capacity reduction versus wild-type” value ([4]; mutation Gly218^5.42Ser)?
The value was “over 60%”.

And the “(–)-Crebanine/CPM (Tm)” value ([5]; mutant G218^5.42A, n = 2)?
Its value is 53.92 °C.

What about the “Tm value decrease versus wild-type” value ([5]; mutation Gly218^5.42Ala) of the same molecule?
The value was “over 6.0 °C”.

And the “(–)-Crebanine/MS relative ligand binding” value [6]?
The value was 14.64%.

What about the “thermal shift value (∆Tm)” value ([7]; CPM assay, comparing to apo-protein) of the same molecule?
The value was 9.25 °C.

And the “(–)-Crebanine/CPM (Tm)” value ([7]; WT receptor, n = 2)?
The value was 59.93 °C.
